These results are taken from patent US6544767B1, “Cathespin O2 protease” (Axys Pharmaceuticals, Inc., priority 1994, dated 2003).

Read-outs that look alike come from different tables or passages of the source. Non-standard residues stand in square brackets, D forms with d. Residues, ends and D or L forms follow the SMILES beside them. *: point of attachment. Sta = CC(C)C[C@H](N)[C@@H](O)CC(=O)O; AMC = Cc1cc(=O)oc2cc(N*)ccc12; Isovaleryl = CC(C)CC(=O)*; Cbz = O=C(OCc1ccccc1)*; CHN2 = [N-]=[N+]=C*

Series [1] deals with T1, recombinant human cathepsin O2 (Homo sapiens, UniProt P43235).
T1 construct: the mature protein spans from position 115 to 329 (215 amino acids); made in house; host or cells: Sf9 insect cells (baculovirus, pVL1392)
T1 sequence (P43235 115-329): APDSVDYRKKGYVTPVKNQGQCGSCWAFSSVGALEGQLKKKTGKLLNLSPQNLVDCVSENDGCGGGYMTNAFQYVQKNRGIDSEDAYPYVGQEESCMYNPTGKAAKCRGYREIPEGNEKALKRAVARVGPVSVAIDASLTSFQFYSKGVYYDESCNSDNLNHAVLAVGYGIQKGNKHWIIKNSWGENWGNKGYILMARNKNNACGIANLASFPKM
In words: Inhibitor profile, fluorimetric enzyme assay with Z-FR-MCA. The format is biochemical. The note with it: for inhibition at 0.05 µM: [inhibitor] 0.05 μM. As for the experimental part: (§1) Human cathepsin O2 was assayed with a fluorogenic substrate Z-FR-MCA (MCA, methyl coumarylamide) in 100 mM sodium acetate buffer, containing 2.5 mM dithioerythreitol and 2.5 mM EDTA. Initial rates of hydrolysis of the MCA-substrate are monitored in 1-cm cuvettes at 25° C. at an excitation wavelength at 380 nm and an emission wavelength at 450 nm. The concentration of Z-FR-MCA is 5 μM under standard conditions.
The inhibition of cathepsin O2 was assayed at a constant substrate (5 μM Z-FR-MCA) and enzyme concentration (1 nM) in the presence of different inhibitor concentrations in the substrate assay buffer. Cathepsin O2 was preincubated with the inhibitors for 10 min and the reaction was started with substrate. The residual activity was monitored and percent inhibition was calculated from the uninhibited rate.
The efficacy of protease class specific inhibitors to inhibit cathepsin O2 was determined by adding the inhibitor to the purified enzyme in a fluorimetric enzyme assay (described above).

In series [2] the target is T1, recombinant human cathepsin O2. The series is described as follows: Hydrolysis of synthetic MCA substrates (kinetic parameters). Format: biochemical. How it is done:
as §1
The kinetic constants Vmax and Km were obtained by non-linear regression analysis using the program Enzfitter (Leatherbarrow, Enzfitter, Elsevier Biosoft, Cambridge, United Kingdom (1987).
The substrate specificity towards synthetic substrates was determined using the above described substrate assay.
For the calculation of the kinetic parameters kcat and Km the initial rates were obtained typically at 9-11 different substrate concentrations, and the results are fitted to equation (1). The enzyme concentration is determined by active site titration with E-64 (Kinder et al., Biochem. J. 201:367-372 (1982)). [formula]

The conditions of series [3]: from literature; cited from earlier work.
Another series can be described thus: pH stability at 37° C. Format: physicochemical. As for the experimental part:
The residual activity was measured in time intervals using the above described fluorimetric substrate assay. The pH stability of cathepsins O2, S and L was studied at three different pH values. Recombinant human cathepsins O2, S and L were incubated at 37° C. in 100 mM sodium acetate buffer, pH 5.5, in 100 mM potassium phosphate buffer, pH 6.5 and in 100 mM Tris/HCl, pH 7.5 containing 5 mM dithiothreitol and 2.5 mM EDTA. Incubating for 0.5, 1, 2 and 4 hours, the activity remaining was determined using 5 μM Z-FR-MCA for cathepsin O2 (100 mM potassium phosphate buffer, pH 6.5) and cathepsin L (100 mM sodium acetate buffer, pH 5.5) and 5 μM Z-VVR-MCA for cathepsin S (100 mM potassium phosphate buffer, pH 6.5).

The next series is described as follows: pH activity profile. The format is biochemical. The note with it: calculated from (pK1 + pK2)/2. How it is done: Initial rates of substrate hydrolysis were monitored as described above. The pH activity profile of human cathepsin O2 was obtained at 1 μM substrate (Z-FR-MCA) concentration ([S]<<Km where the initial rate vo is directly proportional to the kcat/Km value). The following buffers were used for the pH activity profile: 100 mM sodium citrate (pH 2.8-5.6) and 100 mM sodium phosphate (pH 5.8-8.0). All buffers contained 1 mM EDTA and 0.4 M NaCl to minimize the variation in ionic strength. A three protonation model (Khouri et al., Biochem. 30:8929-8936 (1991)) was used for least square regression analysis of the pH activity data. The data were fitted to the following equation.
(kcat/Km)obs=(kcat/Km)/([H^+]/K1+1+K2/[H^+])

In another series the test system is [^3H] elastin. In words: Elastin degradation assay. Format: biochemical. As for the experimental part:
Elastin (2 mg) was incubated in I ml buffer containing 2.5 mM dithiothreitol, 2.5 mM EDTA and 0.05% Triton X-100 for the cathepsin O2, S and L assays. Aliquots were withdrawn after 10, 20, 30, 50, 90, 120 and 180 min, centrifuged for 1 min at 14,000×g and counted in a 24-well plate containing scintillation fluid with Liquid Scintillation counter (1450 Microbeta Plus, Wallac/Pharmacia). Concentrations of human cathepsins O2, S and L and bovine elastase in the elastin degradation assay were 65 nM, 28 nM, 80 nM and 80 nM, respectively. To determine the pH effect on protease activity the digests were carried out at pH 4.5 and 5.5 (100 mM sodium acetate, 2.5 mM each dithiothreitol and EDTA, 0.05% Triton X-100), and at pH 7.0 (100 mM Tris/HCl, 2.5 mM each of dithiothreitol and EDTA, 0.05% Triton X-100). Pancreatic bovine elastase (Boehringer, Mannheim, Ind.) was assayed under the same conditions except that neither dithiothreitol nor EDTA was added to the incubation mixture.

The subject of series [4] is denatured soluble calf skin collagen. In words: Gelatinase activity, SDS-PAGE. Format: biochemical. How it is done: FIGS. 9A and 9B depict SDS PAGE of type I collagen (soluble calf skin collagen) after digestion with recombinant human cathepsin O2 and L and bovine trypsin. FIG. 9A: Collagenase activity: Digestion of soluble calf skin collagen at 28° C. and at pH 4.0, 5.0, 5.5, 6.0, 6.5, 7.0 by human cathepsins O2, S and L (each 50 nM) for 12 hours. The reaction was stopped by addition of 10 μM E-64. Untreated soluble collagen was used as standard (S). FIG. 9B: Gelatinase activity: Digestion of denatured soluble calf skin collagen (10 min heated at 70° C.) at 28° C. and at pH 4.0, 5.0, 5.5, 6.0, 6.5, 7.0 by human cathepsin O2 (0.1 nM), cathepsin L (0.2 nM) and human cathepsin S (1 nM). Molecular mass standards are indicated in the left lane.
Soluble calf skin Type I collagen was diluted to 0.4 mg/ml into 100 mM-sodium acetate buffer, pH 4.5, 5.0, 5.5, in 100 mM-potassium phosphate buffer, pH 6.0, 6.5 and 100 mM-Tris/HCl, pH 7.0 containing 2 mM-dithiotreitol/2 mM-EDTA. Human cathepsins O2, S and L and bovine trypsin (Sigma) were incubated at concentrations of 100 nM enzyme concentration for 10 hours at 28° C. To measure the gelatinase activity of cathepsins O2 and S, Type I collagen was heated for 10 min at 70° C. prior to incubation with the proteases. In the presence of 1 nM proteases the reaction mix was incubated for 30 min at 28° C. […]

The inhibition is the drop in the measured response relative to a control, in per cent. Consider `CC(=O)N[C@@H](CC(C)C)C(=O)N[C@@H](CC(C)C)C(=O)N[C@H](C=O)CCCNC(=N)N` [leupeptin], for which the inhibition at 0.05 µM in series [1] is 85%.

By % inhibition is commonly meant the share of the control response that was lost under treatment. With `O=c1oc(Cl)c(Cl)c2ccccc12` [DCI], the “% inhibition” value in series [1] ([inhibitor] 0.1 mM) amounted to 0%.

Broadly, the Km is the substrate concentration at which the rate is half of its maximum. As a reminder, the kcat is the number of substrate molecules converted per active site and unit of time at saturation. As for Z-LLR-MCA, the values for the Km in series [2] and in series [2] (text value) were 0.4 ± 0.1 µM and 0.4 µM, respectively. Besides, the kcat in series [2] was found to be 0.02 ± 0.008 s⁻¹.

With Cbz-Val-Arg-{AMC}, in series [2], the Km amounted to 13.1 ± 5.6 µM and the kcat came out at 1.06 ± 0.16 s⁻¹.

In the case of `Cc1cc(=O)oc2cc(NC(=O)[C@H](CCCN=C(N)N)NC(=O)[C@H](CC(C)C)NC(=O)OCc3ccccc3)ccc12` [Z-LR-MCA], in series [2], the Km was found to be 3.8 ± 0.8 µM and the kcat came to 0.98 ± 0.39 s⁻¹.

`C[C@H](NC(=O)[C@H](Cc1ccccc1)NC(=O)OCc1ccccc1)C(=O)C=[N+]=[N-]` [Z-FA-CHN2]: the “% inhibition” value in series [1] ([inhibitor] 0.1 μM) was found to be 100%.

For the molecule `CC(C)CC(=O)N[C@H](C(=O)N[C@H](C(=O)N[C@@H](CC(C)C)[C@@H](O)CC(=O)N[C@@H](C)C(=O)N[C@@H](CC(C)C)[C@@H](O)CC(=O)O)C(C)C)C(C)C` [pepstatin] (Isovaleryl-VV[Sta]A[Sta]-OH), in series [1] ([inhibitor] 0.1 μM), the inhibition at 0.1 µM worked out at 0%.

For the molecule `Cc1cc(=O)oc2cc(NC(=O)C(CCCN=C(N)N)NC(=O)C(Cc3ccccc3)NC(=O)OCc3ccccc3)ccc12` (stereo not drawn) [Z-FR-MCA] (Cbz-Phe-Arg-{AMC}; configuration not given here), in series [2], the Km was 7.5 ± 3.4 µM and the kcat is 0.90 ± 0.20 s⁻¹.

Turning to `CC(C)C[C@H](NC(=O)[C@@H](NC(=O)N[C@@H](Cc1ccccc1)C(=O)O)[C@@H]1CCN=C(N)N1)C(=O)N[C@H](C=O)Cc1ccccc1` [chymostatin], in series [1], the inhibition at 0.05 µM was 64%.

As to “cathepsin L: recombinant human cathepsin L provided by Dr. Mort [reference compound]”, the “pK1 of pH activity profile” value in series [3] is listed as 4.22 ± 0.28. The “pK1′ of pH activity profile” value in series [3] is 3.33 ± 0.14. Besides, in series [3], the “pK2 of pH activity profile” value is on record as 6.95 ± 0.09. For the same molecule, the “Residual activity (%)” value in the series “pH stability at 37° C.” (pH 5.5, 37° C., 0.5 hr) was 87%; in “pH stability at 37° C.” (pH 5.5, 37° C., 1 hr) it was 78%; in the series “pH stability at 37° C.” (pH 5.5, 37° C., 2 hr), 71%; in “pH stability at 37° C.” (pH 5.5, 37° C., 4 hr), 51%; in “pH stability at 37° C.” (pH 6.5, 37° C., 0.5 hr), 12%; in “pH stability at 37° C.” (pH 6.5, 37° C., 2 hr), 0%. In addition, the “Residual activity (%)” value in the series “pH stability at 37° C.” (pH 6.5, 37° C., 4 hr) is listed as 0%; in the series “pH stability at 37° C.” (pH 7.5, 37° C., 0.5 hr) it was 0%; in “pH stability at 37° C.” (pH 7.5, 37° C., 1 hr) it was 0%; in “pH stability at 37° C.” (pH 7.5, 37° C., 2 hr), 0%; in the series “pH stability at 37° C.” (pH 7.5, 37° C., 4 hr), 0%. Further, in the series “pH activity profile”, the pH optimum is listed as 5.6. Also, the values for the elastinolytic activity in series [^3H] elastin (pH 4.5), in series [^3H] elastin (pH 5.5) and in series [^3H] elastin (pH 7.0) were 18 mg/min/μmol enzyme, 32 mg/min/μmol enzyme and 0 mg/min/μmol enzyme, respectively. Besides, the “pH range of gelatinase activity” value in series [4] is on record as 4.5-5.5.

For the molecule `Cl.NCCc1ccc(S(=O)(=O)F)cc1` [Befablock], the “% inhibition” value in series [1] ([inhibitor] 0.2 mM) came out at 0%.

As for `O=S(=O)(F)Cc1ccccc1` [PMSF], the “% inhibition” value in series [1] ([inhibitor] 1 mM) is given as 0%.

In the case of `O=C(O)CI` [iodo acetate], the “% inhibition” value in series [1] ([inhibitor] 50 μM) is listed as 60%.

As to `CC(C)C[C@H](NC(=O)[C@H]1O[C@@H]1C(=O)O)C(=O)NCCCCN=C(N)N` [E-64], in series [1] ([inhibitor] 0.1 μM), the “% inhibition” value was 100%. Further, in series [1] (concentrations above 0.1 μM), the “inhibition of enzyme activity” value is recorded as “completely inhibit”.

Take `Cc1cc(=O)oc2cc(NC(=O)[C@H](CCCN=C(N)N)NC(=O)[C@H](CCCN=C(N)N)NC(=O)OCc3ccccc3)ccc12` [Z-RR-MCA] (Cbz-Arg-Arg-{AMC}): in series [2], the Km worked out at 23 ± 4 µM, the kcat turned out to be 0.0005 ± 0.0002 s⁻¹ and the substrate quality result is “very poor substrate”.

For the molecule `[N-]=[N+]=CC(=O)[C@H](Cc1ccccc1)NC(=O)[C@H](Cc1ccccc1)NC(=O)OCc1ccccc1` [Z-FF-CHN2] (Cbz-Phe-Phe-CHN2), in series [1] ([inhibitor] 0.1 μM), the “% inhibition” value amounted to 90%.

Take Cbz-Val-Val-Arg-{AMC}: in series [2], the Km was 18.5 ± 1.5 µM and the kcat amounted to 0.01 ± 0.004 s⁻¹.

Consider `CCCC[C@@H](C=O)NC(=O)[C@H](CC(C)C)NC(=O)OCc1ccccc1` [calpeptin], for which the inhibition at 0.1 µM in series [1] ([inhibitor] 0.1 μM) came to 100%.

Regarding `O=C(O)CN(CCN(CC(=O)O)CC(=O)O)CC(=O)O` [EDTA], the “% inhibition” value in series [1] ([inhibitor] 4 mM) came out at 0%. Besides, the “effect on the activity of cathepsin O2” value in series [1] (concentration of 4 mM) is reported as “No effect”. For the same molecule, in series [1] (higher concentrations (>5 mM)), the “inhibition of cathepsin O2” value is recorded as “partial non-specific inhibition”.
